Measured values taken from patent US20060040901A1, “Derivatives of 1,3-cyclic propandiol phosphate and their action as cell stimulants” (YEDA RESEARCH AND DEVELOPMENT CO. Ltd., priority 2002, published 2006).

Key:
CHO cells = test: Cell signaling analysis: tyrosine phosphorylation in CHO cells; format: cell-based, Chinese Hamster; settings: for intracellular tyrosine phosphorylation: CHO cells, data not shown
Description: CHO cultures were grown as described above for PC12 cells. The cultures were divided into two groups and different compounds were added, followed by a period of incubation of from 1 to 30 minutes. Thus one CHO culture was incubated with 5 μM of 1,3-cyclic propandiol phosphate-2-methylamino at 37° C., the control being a similar CHO culture incubated with 1,3-cyclic glycerphosphate under the same conditions. […] In particular it was detected in a series of proteins with molecular weight of ≈35 kDa, ≈45 kDa, ≈60-70 kDa. as shown in FIG. 1.

Rat hippocampal neurons = test: Neuronal morphology of cultured hippocampal neurons (stage 3); format: cell-based; settings: three days
Description: Rat hippocampal neurons were cultured at low density in defined medium as described previously (Brann et al., 2002, J Bio Chem 277(12): 9812-9818), with slight modifications. Briefly, the dissected hippocampi of embryonic day 18 rats were dissociated by trypsinization (0.25% w/v, for 15 min at 37° C.). The tissue was washed in Mg^2+/Ca^2+-free Hanks' balanced salt solution (Invitrogen) and dissociated by repeated passage through a constricted Pasteur pipette. Cells were plated in minimal essential medium with 10% horse serum at a density of 25,000 cells per 13-mm glass cover slips that had been precoated with poly-L-lysine (1 mg/ml). After 2-4 hr, cover slips were transferred into 24-well plates (Nunc), containing B27 supplemented Neurobasal medium (Brewer, G. et al., 1993, J Neurosci Res 35: 567-576), and cultures were maintained in this defined medium throughout the experiment.
For morphological analysis, cover slips were removed from the 24-well plates on the 3rd day of culture. Neurons were fixed in 1% (v/v) glutaraldehyde in phosphate-buffered-saline for 20 min at 37° C., and mounted for microscopic examination in 50% glycerol in phosphate-buffered-saline. Neurons were examined by phase contrast microscopy using an Achroplan 32x/0.4 n.a. phase 2 objective of a Zeiss Axiovert 35 microscope. Neuronal growth was analyzed based on established developmental criteria of cultured hippocampal neurons (Schwarz et al., 1995, J Bio Chem 270(18): 10990-10998; Brann et al., 1999, J Neurosci 19(19): 8199-8206) as follows: (i) Only neurons at stage 3 were analyzed in this study. […] (iii) Only those cells in which the whole axon plexus could be unambiguously delineated were measured. (iv) The number of axonal branch points per cell were measured. […]
Images of neurons were acquired using NIH image (version 1.62) software. The analyze mode was set to a proportional ratio scale of pixel to μm, the outline of the neuron was copied using the freehand line tool, and the line length measured and analyzed according to the morphological criteria outlined above. […]

PC12 cells [1] = test: Induction of neuronal outgrowth / neuronal differentiation in PC-12 cells; format: cell-based, rat; settings: for neuronal differentiation / axonal outgrowth: data not shown; for neural outgrowth: 5 μM, after 8 days, microscope, FIG. 2
Description: (§1) In the presence of nerve growth factor these cells differentiate to neuronal cells. PC12 cells originated from rat pheochromocytoma were grown as monolayers in Eagle's medium (EM) supplemented with 10% fetal calf serum, 50 μg/ml gentamicin and 5 mM glutamine, in a humidified incubator buffered with 5% CO2, at 37° C. The culture medium is changed every four days and the cells are passaged every eight days and performed confluent monolayers (1.5×10^6 in a 10 cm plate or 10^5 cells per well in 24 wells plate). PC12 cells are originally round cells which, following several days in the presence of nerve growth factor (NGF) process nerves. Upon withdrawal of the NGF, the nerves retract and a process of apoptosis is initiated in the cells.
PC12 cells were grown in culture as explained above. The cells were divided into two groups and different compounds were added. To the first were added 5 μM 1,3-cyclic propandiol phosphate-5-caproylamido, while as a control to the second portion was added NGF. After a period of 8 days the two groups of PC12 cells were inspected by microscope.

PC12 cells [2] = test: Rescue of PC12 cells from NGF deprivation (nerve rescue); format: cell-based, rat; settings: data not shown
Description: as §1
Similar effects were observed (data not shown) for the following compounds. […] 2-Benzyloxy 1,3-chloropropanediol phosphate (Example 16 above) was dissolved in ethanol and from there introduced by 1:1000 dilution into PC12 cultures.

| Compound | neuronal differentiation / axonal outgrowth (PC12 cells [1]) | intracellular tyrosine phosphorylation (CHO cells) | other results |
| --- | --- | --- | --- |
| CNC1COP(=O)(O)OC1 (stereo not shown) [Example 7, 1,3-cyclic propandiol phosphate-2-methylamino] |  |  | exposure time after which augmented tyrosine phosphorylation was noticed (CHO cells; CHO culture, 5 μM, 37° C.): ≤ 1 min; tyrosine phosphorylation of proteins (≈35 kDa, ≈45 kDa, ≈60-70 kDa) (CHO cells; CHO culture, 5 μM, 37° C., incubation 1 to 30 minutes, control 1,3-cyclic glycerphosphate, FIG. 1): Augmented tyrosine phosphorylation |
| O=P1(O)OCCCO1 [Example 9, 1,3-cyclic propanediol phosphate] | triggering axonal outgrowth |  | total elongation of axon plexus compared to non-treated cells (Rat hippocampal neurons; pyramidal rat embryo hippocampal cells, 5 μM, FIG. 3): 32%; increase in length of the longest axon (main axon) compared to non-treated cells (Rat hippocampal neurons; pyramidal rat embryo hippocampal cells, 5 μM, FIG. 4): about 20%; increase in axonal branch points per cell compared with non-treated cells (Rat hippocampal neurons; rat embryo hippocampal cells, FIG. 5): about 47% |
| NGF: nerve growth factor, in whose presence PC12 cells differentiate to neuronal cells |  |  | neural outgrowth (PC12 cells [1]): did not exhibit such promotion of neural outgrowth |
| CCCCCC(=O)NC1COP(=O)(O)OC1 (stereo not shown) [Example 4, 1,3-cyclic propandiol phosphate-5-caproylamido] |  |  | neural outgrowth (PC12 cells [1]): promoted neural outgrowth |
| 2-caproimido 1,3-chloropropanediol phosphate [Example 17] | neuronal differentiation | induced tyrosine phosphorylation |  |
| CCNP1(=O)OCCCO1 [Example 14, 1,3-cyclic propanediol N-ethyl phosphoamidate] | did not induce neuronal differentiation | promoted tyrosine phosphorylation |  |
| NP1(=O)OCCCO1 [Example 13, 1,3-cyclic propanediol phosphoamidate] | did not induce neuronal differentiation | capable of inducing tyrosine phosphorylation | rescue from NGF deprivation (nerve rescue) (PC12 cells [2]): did rescue them from NGF deprivation |
| CC1COP(=O)(O)OC1 (stereo not shown) [Example 10, 2-methyl 1,3-cyclic propanediol phosphate] | triggering axonal outgrowth |  |  |
